Consider one molecule from patent US20250268829A1, “INHALED ANTIBACTERIAL FORMULATIONS FOR TREATING LUNG INFECTIONS” (Board of Regents, The University of Texas System, priority 2022, published 2025).

Some results are limits rather than exact numbers.

Common to all, as to assay type: physicochemical
A short description of series [1]: Water content by thermogravimetric analysis (TGA). The conditions noted are these: baseline. As for the experimental part: The water content of the powders was assessed using thermogravimetric analysis (TGA). About 5 mg of powder was loaded into a 70 μL alumina crucible. The samples were heated from 35-350° C. at a rate of 10° C./min.
(§1) The milled powder was stored for 30 days at 25° C./60% RH and 45° C./75% RH, as specified by the International Council for Harmonization (ICH) intermediate and accelerated stability conditions using sealed amber vials. At the 30-day and 6 month time point, the powder was characterized for its physicochemical properties, stability, and aerosol performance. The results obtained from day 30 and 6 months were compared to baseline measurements to declare storage stability.

Series [2] in a line: In vitro aerosol performance, Next Generation Impactor (NGI). The conditions noted are these: for Emitted Dose / Emitted Fraction / GSD / MMAD / RF (<5 μm): 4 kPa; for RF (<5 μm): percent of total dose. As for the experimental part: The in vitro aerosol performance of the milled and unmilled powders was assessed using Next Generation Impactor (NGI) with a low and high resistance DPI (RS01 Monodose DPI (RS01 DPI; Plastiape). About 10 mg of the powder was added to size 3 hydroxypropyl methylcellulose (HPMC) capsules and the analysis was performed for a length of time sufficient to draw 4 L of air through the NGI, as per USP requirements. The pressure drop across the system was equivalent to either 4 kPa or 1 kPa. The flow rates required across the pressure drop to draw 4 L of air through the NGI, as per USP requirements, were 93 L/min for 4 kPa and 47.6 L/min for 1 kPa. The aerosol performance was compared between the low resistance device and the high resistance device. Also, the performance of the Plastiape devices was compared to that of Handihaler, a commercially used DPI. TIG deposited in each stage was dissolved in a buffer containing 0.015 M oxalic acid and 0.015 M sodium phosphate monobasic at pH 7 and quantified using a UV-Visible spectrophotometer (Tecan Systems, Inc., San Jose, CA, USA) at 245 nm. The aerodynamic particle size metrics that were calculated include emitted dose (ED), emitted fraction (EF), the respiratory fraction (RF), fine particle dose (FPD), fine particle fraction (FPF), mass median aerodynamic diameter (MMAD), and geometric standard deviation (GSD). […]

Series [3] can be described thus: Geometric particle size distribution, HELOS laser diffraction with RODOS dispersion. The conditions noted are these: Avg. As for the experimental part:
HELOS laser diffraction instrument (Sympatec Americas, Pennington, NJ) using the RODOS dispersion feature was used to assess the geometric particle size distribution of both the milled and unmilled powders. The particle size distribution was measured at different pressures from 0.5-3 bar to analyze the effect of dispersion pressure on particle deaggregation. Measurements that were between 5% and 25% optical density were averaged to determine particle size distribution.

The nature of series [4]: Water sorption by dynamic vapor sorption (DVS). The conditions noted are these: baseline. The protocol:
Dynamic vapor sorption (DVS) analysis of the powders was performed using an Automated Water Sorption Analyzer (Surface Measurement Systems, London, UK). Briefly, 5-10 mg of milled and unmilled TIG powder was used as the sample. The samples were allowed to equilibrate under nitrogen until dm/dt<0.002%. Water sorption was analyzed as 10 steps from 0% relative humidity (RH) to 100% RH where step dm/dt was set at 0.075% at 10% increments in RH.
as §1

The nature of series [5]: True density, helium multipycnometer. The protocol: The true density of the processed powders was measured using a helium multipycnometer (Quantachrome Instruments, Boynton Beach, FL) with a micro-sample cell. The sample cell was filled to at least 75% of the total volume with milled or unmilled tigecycline powder. Using equation (1), the pressure of both the reference cell (P1) and sample cell (P2) was determined, and the true volume of the sample was calculated as follows:
For the micro-sample cell utilized, Vc was calibrated at 11.76156 cm^3 and VR=6.34216 cm^3. The sample weight was divided by the measured true volume to obtain the true density. Measurements were repeated until the standard deviation of ten consecutive true density measurements was less than 0.01 g/mL.

With `CN(C)c1cc(NC(=O)CNC(C)(C)C)c(O)c2c1C[C@H]1C[C@H]3[C@H](N(C)C)C(O)=C(C(N)=O)C(=O)[C@@]3(O)C(O)=C1C2=O` [Unmilled tigecycline, tigecycline], the Water content entry in series [1] was “negligible”. The “Emitted Dose” value in series [2] (Handihaler) was found to be 7.66 ± 5.11 mg; in series [2] (LR Plastiape), 8.48 ± 0.25 mg. The “Emitted Fraction” value in series [2] (Handihaler) stood at 64.60 ± 0.23%; in series [2] (LR Plastiape), 90.20 ± 0.27%. Besides, the figures for the GSD in series [2] (Handihaler) and in series [2] (LR Plastiape) were 1.13 ± 0.11 and 1.25 ± 0.01, respectively. Moreover, the MMAD in series [2] (Handihaler) was 8.27 ± 1.41 μm; in series [2] (LR Plastiape, listed as Unmilled), 5.73 ± 0.52 μm; in series [2] (LR Plastiape, listed as unmilled tigecycline), 5.73±0.52 μm. The “RF (<5 μm)” value in series [2] (Handihaler) is recorded as 16.44 ± 2.12%; in series [2] (LR Plastiape) it was 28.59 ± 1.56%. The “emitted dose deposited in the capsule, device, throat and early NGI stages” value in series [2] (pressure drop of 4 kPa) is over 65%. Further, the “Fine Particle Dose (FPD)” value in series [2] (pressure drop of 4 kPa, before storage) turned out to be 2.57 ± 0.06 mg. In series [2] (pressure drop of 4 kPa, before storage, particles below 5 μm with respect to emitted dose), the “fine particle fraction (FPF)” value is on record as 31.70±1.83%. Besides, the Dv90 was found to be 18.38 μm in series [3] (dispersing pressure 0.5 bar); 16.29 μm in series [3] (dispersing pressure 1 bar); 10.79 μm in series [3] (dispersing pressure 2 bar); 9.49 μm in series [3] (dispersing pressure 3 bar); 9.48 μm in series [3] (dispersing pressure 3 bar, listed as unmilled powders). The hygroscopicity entry in series [4] is on record as “not hygroscopic”. For the same molecule, the “True Density” value in series [5] is 1.282 ± 0.0004 g/mL.
